This note sets out measurements from ChEMBL document CHEMBL4765389, “Antimicrobial and anti-inflammatory activities of short dodecapeptides derived from duck cathelicidin: Plausible mechanism of bactericidal action and endotoxin neutralization” (Eur J Med Chem, 2020).

Series [1] has as its system RAW264.7. As to the kind of experiment: Antiinflammatory activity in mouse RAW264.7 cells assessed as neutralization of LPS binding by measuring LPS-FITC aggregation at 10 uM pretreated with LPS for 1 hr followed by compound addition and measured after 1 hr by flowcytometry analysis (reference value: 48.12 %). Type of series: functional.
Series [2] has as its system Lipopolysaccharide (LPS). As to the kind of experiment: Inhibition of Escherichia coli O111:B4 LPS aggregation assessed as increase in FITC-LPS dissociation at 100 uM by spectrofluorometry.
Series [3] concerns RAW264.7. As to the kind of experiment: Antiinflammatory activity in mouse RAW264.7 cells assessed as suppression of LPS binding by measuring LPS-FITC aggregation at 10 uM pretreated with LPS for 1 hr followed by compound addition and measured after 30 mins by flowcytometry analysis (reference value: 67.93 %). Type of series: functional. The conditions noted are these: 0.5 h.

The subject of the next series is Pseudomonas aeruginosa. As to the kind of experiment: Antibacterial activity against Pseudomonas aeruginosa KCTC 1637 assessed as reduction in bacterial growth incubated for 24 hrs by CLSI based broth dilution method. The conditions noted are these: read-out: MIC100. Type of series: functional.
Series [4] concerns Lipopolysaccharide (LPS). As to the kind of experiment: Inhibition of Escherichia coli O111:B4 LPS aggregation assessed as increase in FITC-LPS dissociation at 2 uM by spectrofluorometry.
For a further series, the system named is Saccharomyces cerevisiae. As to the kind of experiment: Antifungal activity against yeast assessed as reduction in fungal growth incubated for 24 hrs by CLSI based broth dilution method. Conditions: read-out: MIC100. Type of series: functional.
The subject of series [5] is Bacteria. As to the kind of experiment: Antibacterial activity against Gram positive bacteria assessed as reduction in bacterial growth incubated for 24 hrs by CLSI based broth dilution method. Type of series: functional. The conditions noted are these: read-out: MIC100.
Series [6] deals with Erythrocyte. Put plainly: Hemolytic activity in sheep RBC assessed as reduction in hemoglobin at 256 uM incubated for 1 hr. Type of series: ADME, cell-based, Ovis aries.
A short description of series [7]: Therapeutic index, ratio of HC10 for sheep RBC to geometric mean MIC for gram negative bacteria. Type of series: toxicity. Conditions: sheep red blood cells, read-out: TI.
A short description of series [8]: (§1) Cytotoxicity against mouse NIH/3T3 cells assessed as reduction in cell viability at 20 uM incubated for 24 hrs by MTT assay. Conditions: NIH/3T3 cells, read-out: INH. Type of series: cell-based, NIH3T3.
A short description of series [9]: Retention time of the compound by RP-HPLC method. Type of series: physicochemical.
Series [10] concerns Staphylococcus aureus. As to the kind of experiment: Antibacterial activity against methicillin-resistant Staphylococcus aureus CCARM 3089 assessed as reduction in bacterial growth incubated for 24 hrs by CLSI based broth dilution method. Type of series: functional. Conditions: read-out: MIC100.
Series [11] is described as follows: Cytotoxicity against mouse RAW264.7 cells assessed as reduction in cell viability at 20 uM incubated for 24 hrs by MTT assay. Type of series: cell-based. Conditions: read-out: INH.
The next series has as its system Escherichia coli. Put plainly: Antibacterial activity against Escherichia coli KCTC 1682 assessed as reduction in bacterial growth incubated for 24 hrs by CLSI based broth dilution method. Type of series: functional. Conditions: read-out: MIC100.
Series [12] in a line: Therapeutic index, ratio of HC10 for sheep RBC to geometric mean MIC for gram positive bacteria. Type of series: toxicity. Conditions: sheep red blood cells, read-out: TI.
The subject of series [13] is RAW264.7. Put plainly: Antiinflammatory activity against mouse RAW264.7 cells assessed as reduction in LPS-induced nitrite level at 5 uM incubated for 24 hrs by Griess reagent based assay relative to control. Type of series: functional.
Series [14] is described as follows: Therapeutic index, ratio of HC10 for sheep RBC to geometric mean MIC for yeast. Type of series: toxicity. The conditions noted are these: sheep red blood cells, read-out: TI.
Series [15] deals with Bacteria. Put plainly: Antibacterial activity against Gram negative bacteria assessed as reduction in bacterial growth incubated for 24 hrs by CLSI based broth dilution method. Type of series: functional. The conditions noted are these: read-out: MIC100.
The test system of another series is Salmonella typhimurium. As to the kind of experiment: Antibacterial activity against Salmonella typhimurium KCTC 1926 assessed as reduction in bacterial growth incubated for 24 hrs by CLSI based broth dilution method. Type of series: functional, Salmonella enterica subsp. enterica serovar Typhimurium. The conditions noted are these: Salmonella enterica, read-out: MIC100.

For series [16], the system named is Staphylococcus aureus. As to the kind of experiment: Antibacterial activity against Staphylococcus aureus KCTC 1621 assessed as reduction in bacterial growth incubated for 24 hrs by CLSI based broth dilution method. Conditions: read-out: MIC100. Type of series: functional.
Series [17] relates to Staphylococcus epidermidis. Put plainly: Antibacterial activity against Staphylococcus epidermidis KCTC 1917 assessed as reduction in bacterial growth incubated for 24 hrs by CLSI based broth dilution method. Type of series: functional. The conditions noted are these: read-out: MIC100.
Series [18] in a line: Antibacterial activity against multidrug-resistant Pseudomonas aeruginosa CCARM 2095 assessed as reduction in bacterial growth incubated for 24 hrs by CLSI based broth dilution method. Type of series: functional. The conditions noted are these: read-out: MIC100.
The nature of series [19]: Antibacterial activity against multidrug-resistant Pseudomonas aeruginosa CCARM 2109 assessed as reduction in bacterial growth incubated for 24 hrs by CLSI based broth dilution method. Type of series: functional. Conditions: read-out: MIC100.
The subject of series [20] is Staphylococcus aureus. Put plainly: Antibacterial activity against methicillin-resistant Staphylococcus aureus CCARM 3095 assessed as reduction in bacterial growth incubated for 24 hrs by CLSI based broth dilution method. Type of series: functional. Conditions: read-out: MIC100.
Series [21] has as its system RAW264.7. As to the kind of experiment: Antiinflammatory activity against mouse RAW264.7 cells assessed as reduction in LPS-induced TNFalpha level at 10 uM incubated for 24 hrs by […] relative to control. Type of series: functional.
For series [22], the system named is Staphylococcus aureus. Put plainly: Antibacterial activity against methicillin-resistant Staphylococcus aureus CCARM 3090 assessed as reduction in bacterial growth incubated for 24 hrs by CLSI based broth dilution method. Conditions: read-out: MIC100. Type of series: functional.
Series [23] concerns Candida albicans. Put plainly: Antifungal activity against Candida albicans KCTC 7965 assessed as reduction in fungal growth incubated for 24 hrs by CLSI based broth dilution method. Type of series: functional. Conditions: read-out: MIC100.
Series [24] deals with Erythrocyte. As to the kind of experiment: Hemolytic activity in sheep RBC assessed as reduction in hemoglobin incubated for 1 hr. Type of series: ADME, cell-based, Ovis aries.
In another series the test system is Bacillus subtilis. As to the kind of experiment: Antibacterial activity against Bacillus subtilis KCTC 3068 assessed as reduction in bacterial growth incubated for 24 hrs by CLSI based broth dilution method. Type of series: functional. Conditions: read-out: MIC100.
In series [25] the test system is Candida albicans. Put plainly: Antifungal activity against Candida albicans KCTC 7121 assessed as reduction in fungal growth incubated for 24 hrs by CLSI based broth dilution method. Conditions: read-out: MIC100. Type of series: functional.
For the next series, the system named is Enterococcus faecium. Put plainly: Antibacterial activity against vancomycin-resistant Enterococcus faecium ATCC 51559 assessed as reduction in bacterial growth incubated for 24 hrs by CLSI based broth dilution method. Type of series: functional. The conditions noted are these: read-out: MIC100.
Series [26] relates to RAW264.7. As to the kind of experiment: Cytotoxicity against mouse RAW264.7 cells assessed as reduction in cell viability at 1.25 to 80 uM incubated for 24 hrs by MTT assay. Type of series: cell-based. Conditions: raw264.7, 24 h, dose 1.25-80 µM.
The subject of series [27] is Cell membrane. As to the kind of experiment: Induction of cell membrane permeability in Staphylococcus aureus KCTC 1621 assessed as cytoplasmic membrane depolarization at 2 times MIC by DiSC3-5 dye based spectrofluorometry. Type of series: subcellular.
For series [28], the system named is NIH3T3. The series is described as §1. Type of series: cell-based. The conditions noted are these: nih3t3, 24 h, 20 µM.
Series [29] concerns Cell membrane. As to the kind of experiment: Induction of cell membrane permeability in Escherichia coli KCTC 1682 assessed as […] at 2 times MIC by ONPG dye based spectrophotometry. Type of series: subcellular.
Series [30] relates to Cell membrane. As to the kind of experiment: Induction of cell membrane permeability in Escherichia coli KCTC 1682 assessed as cytoplasmic membrane […] fluorescent signals at 2 times MIC measured after 1 hr by propidium iodide dye based flow cytometry analysis (reference value: 9.8 %). Type of series: subcellular.
In series [31] the test system is Cell membrane. Put plainly: Induction of cell membrane permeability in Staphylococcus aureus KCTC 1621 assessed as cytoplasmic membrane depolarization at 2 times MIC by SYTOX dye based fluorescence assay. Type of series: subcellular.
Series [32] relates to NIH3T3. As to the kind of experiment: Cytotoxicity against mouse NIH/3T3 cells assessed as reduction in cell viability at 1.25 to 80 uM incubated for 24 hrs by MTT assay. Type of series: cell-based. Conditions: nih3t3, 24 h, dose 1.25-80 µM.

Values after ≈ are worked out from the molar mass of the structure shown. Active and inactive are the calls of the source. No cut-off for these calls is given here. Bridge positions count the residues as written; N and C are the ends. Square brackets hold non-standard residues; d marks the D form. Peptide text beside a SMILES is read from it. * marks the point of attachment. X1 = CC[C@H](C)CCCCC(=O)*; Dab = NCC[C@H](N)C(=O)O

As to `CC[C@H](C)CCCCC(=O)N[C@@H](CCN)C(=O)N[C@H](C(=O)N[C@@H](CCN)C(=O)N[C@H]1CCNC(=O)[C@H]([C@@H](C)O)NC(=O)[C@H](CCN)NC(=O)[C@H](CCN)NC(=O)[C@H](CC(C)C)NC(=O)[C@@H](Cc2ccccc2)NC(=O)[C@H](CCN)NC1=O)[C@@H](C)O` (X1-[Dab]T[Dab][Dab][Dab][dF]L[Dab][Dab]T; lactam 4-C), the Activity in the series with RAW264.7 [1] is on record as 43.62%; in the series with RAW264.7 [3], 23.97%. In addition, the inhibition entry with Lipopolysaccharide (LPS) [2] was “inactive”.

Regarding H-LAIKIYRAWKRR-NH2, the MIC with Pseudomonas aeruginosa came to 4 µM; with Saccharomyces cerevisiae, 12 µM; in the series on Bacteria [5] it was 21.1 µM; with Staphylococcus aureus [10], 32 µM; in the series with Escherichia coli, 16 µM; in the series with Bacteria [15], 15.2 µM. Moreover, the MIC with Salmonella typhimurium was 8 µM; in the series with Staphylococcus aureus [16] it was 8 µM; in [17] it was 4 µM; in series [18] it was 32 µM; in series [19] it was 16 µM; with Staphylococcus aureus [20] it was 32 µM. Besides, the MIC in the series with Staphylococcus aureus [22] worked out at 32 µM; with Candida albicans [23], 8 µM; in the series with Bacillus subtilis it was 8 µM; with Candida albicans [25], 16 µM; in the series on Enterococcus faecium it was 32 µM. Further, the results for the Activity in the series with RAW264.7 [1], with Erythrocyte [6] and with RAW264.7 [3] were 42.35%, “Non-Toxic” and 59.24%, respectively. Further, the inhibition entry in the series on Lipopolysaccharide (LPS) [4] was “Active”. Besides, the selectivity ratio in [7] is 33.7; in series [12], 243; in series [14], 42.7. Besides, the cytotoxicity at 24 h, 20 µM in [8] and in [11] was less than 10% throughout. In series [9], this molecule showed a Retention_time of 16.4 min. Also, the inhibition at 5 µM in the series on RAW264.7 [13] is less than 10%. Further, in the series with RAW264.7 [21], the inhibition at 10 µM is less than 10%. Besides, the HC10 in the series on Erythrocyte [24] was more than 256 µM.

Take `CC[C@H](C)[C@H](NC(=O)CN)C(=O)NCC(=O)N[C@@H](C)C(=O)N[C@H](C(=O)N[C@@H](CC(C)C)C(=O)N[C@@H](CCCCN)C(=O)N[C@H](C(=O)N[C@@H](CC(C)C)C(=O)N[C@H](C(=O)N[C@H](C(=O)NCC(=O)N[C@@H](CC(C)C)C(=O)N1CCC[C@H]1C(=O)N[C@@H](C)C(=O)N[C@@H](CC(C)C)C(=O)N[C@H](C(=O)N[C@@H](CO)C(=O)N[C@@H](Cc1c[nH]c2ccccc12)C(=O)N[C@H](C(=O)N[C@@H](CCCCN)C(=O)N[C@@H](CCCNC(=N)N)C(=O)N[C@@H](CCCCN)C(=O)N[C@@H](CCCNC(=N)N)C(=O)N[C@@H](CCC(N)=O)C(=O)N[C@@H](CCC(N)=O)C(N)=O)[C@@H](C)CC)[C@@H](C)CC)[C@@H](C)O)[C@@H](C)O)C(C)C)C(C)C` [MELITTIN]: the Activity result in the series with RAW264.7 [26] was “Toxic”; in the series on NIH3T3 [28], “Toxic”; in the series with Cell membrane [30] it was 71.9%; in the series on NIH3T3 [32] it was “Toxic”. The MIC amounted to 16 µM (≈ 45.5 µg/mL) with Saccharomyces cerevisiae; 16 µM (≈ 45.5 µg/mL) with Bacteria [5]; 17.2 µM (≈ 49 µg/mL) in the series on Bacteria [15]; 32 µM (≈ 91.1 µg/mL) in [18]; 32 µM (≈ 91.1 µg/mL) in series [19]; 16 µM (≈ 45.5 µg/mL) with Candida albicans [23]. For the same molecule, the MIC in the series on Candida albicans [25] and with Enterococcus faecium was 16 µM (≈ 45.5 µg/mL) each time. Moreover, the result with Cell membrane [27], in the series with Cell membrane [29] and in the series with Cell membrane [31] was Active. Moreover, the selectivity ratio in series [7], in series [12] and in series [14] was 0.1 throughout. The cytotoxicity at 24 h, 20 µM in [11] is less than 10%. In the series with Erythrocyte [24], the HC10 is 1 µM.
